From the supplement of paper PMC10307832

What was measured:
Test in all cases: relative viability (nuclei count vs DMSO), 5 days (fraction); higher = more cells survive
[1] = compound: Cc1ccc(-n2nc(C(C)(C)C)cc2NC(=O)Nc2ccc(OCCN3CCOCC3)c3ccccc23)cc1 [Doramapimod] + CC(C)C[C@H](NC(=O)[C@H](Cc1ccccc1)NC(=O)c1cnccn1)B(O)O [Bortezomib] (partner 0.002 µM)
How it was run: (§1)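 After 5 days of treatment, lung cancer cells in 1536-well plates were fixed and stained in a single step (final 0.05% Triton X-100, 1% formaldehyde, 1 ug/ml Hoechst) and their nuclei counted on 4× images. Treatment had been applied by pin tool the day after seeding as one drug alone or as a fixed anchor-drug dose with five library-drug doses (not always all listed) in √10 steps. Relative viability is the nuclei count of treated wells divided by that of vehicle wells, and values are medians of duplicate plates.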

[2] = compound: Cn1c(Nc2ccc(C(F)(F)F)cc2)nc2cc(Oc3ccnc(-c4ncc(C(F)(F)F)[nH]4)c3)ccc21 [RAF265] + CC(C)C[C@H](NC(=O)[C@H](Cc1ccccc1)NC(=O)c1cnccn1)B(O)O [Bortezomib] (partner 0.002 µM)
How it was run: as §1

[3] = compound: C1=CC=C2C(=C1)C=CC(=C2SSC3=C(C=CC4=CC=CC=C43)O)O [IPA-3] + N=C(N)NC(=N)NCCc1ccccc1 [Phenformin] (partner 250 µM)
How it was run: as §1

[4] = compound: C1=CC=C2C(=C1)C=CC(=C2SSC3=C(C=CC4=CC=CC=C43)O)O [IPA-3] + COc1cccc2cc(-c3nc([C@H]4CC[C@H](C(=O)O)CC4)n4ncnc(N)c34)[nH]c12 [OSI-027] (partner 0.5 µM)
How it was run: as §1

Cell Line | relative viability ([1]; first compound 0.02 µM) | relative viability ([1]; first compound 0.06325 µM) | relative viability ([1]; first compound 0.2 µM) | relative viability ([1]; first compound 0.6325 µM) | relative viability ([1]; first compound 2 µM) | relative viability ([2]; first compound 0.01 µM) | relative viability ([2]; first compound 0.03162 µM) | relative viability ([2]; first compound 0.1 µM) | relative viability ([2]; first compound 0.3162 µM) | relative viability ([2]; first compound 1 µM) | relative viability ([3]; first compound 0.2 µM) | relative viability ([3]; first compound 0.6325 µM) | relative viability ([3]; first compound 2 µM) | relative viability ([3]; first compound 6.325 µM) | relative viability ([3]; first compound 20 µM) | relative viability ([4]; first compound 0.2 µM) | relative viability ([4]; first compound 0.6325 µM) | relative viability ([4]; first compound 6.325 µM) | relative viability ([4]; first compound 20 µM) | relative viability ([4]; first compound 2 µM)
201T | 1.16 | 1.16 | 1.09 | 1.29 | 1.16 | 1.08 | 1.1 | 1.07 | 1.11 | 1.1 | 0.452 | 0.454 | 0.484 | 0.461 | 0.469 | 0.741 | 0.683 | 0.743 | 0.755 | –
A549 | – | – | – | – | – | – | – | – | – | – | 0.197 | – | 0.142 | 0.189 | 0.298 | – | – | – | – | –
A-427 | 0.907 | 1.05 | 1 | – | 1.12 | 0.98 | 0.867 | 1 | 1.1 | 0.494 | 0.395 | 0.295 | 0.288 | 0.253 | 0.447 | 0.432 | 0.438 | 0.388 | 0.451 | 0.491
ABC-1 | 0.297 | 0.302 | 0.262 | 0.345 | 0.296 | 0.308 | 0.321 | 0.278 | 0.284 | 0.303 | 0.258 | 0.247 | 0.236 | 0.258 | 0.235 | 0.55 | 0.426 | 0.564 | 0.567 | 0.457
BEN | 0.69 | 0.785 | 0.896 | 0.52 | 0.684 | 0.993 | 0.878 | 0.777 | 0.85 | 0.547 | 0.268 | 0.291 | 0.243 | 0.243 | 0.388 | 0.309 | 0.295 | 0.302 | 0.333 | 0.288
CAL-12T | 1.01 | 1.11 | 1.16 | 1 | 0.818 | 1.06 | 0.834 | 0.836 | 0.476 | 0.64 | 0.763 | 0.512 | 0.529 | 0.529 | 0.694 | 0.884 | 0.63 | 0.475 | 0.656 | 0.676
COR-L23 | 1.12 | 0.914 | 0.962 | 0.997 | 0.969 | 1.05 | 0.87 | 0.964 | 0.706 | 0.511 | 0.532 | 0.426 | 0.471 | 0.431 | 0.232 | 1.05 | 0.771 | 0.696 | 0.552 | 0.795
COR-L 105 | 0.848 | 0.772 | 0.959 | 0.807 | 0.779 | 0.902 | 0.771 | 0.647 | 0.442 | 0.56 | 0.634 | 0.445 | 0.49 | 0.418 | 0.55 | 0.9 | 0.569 | 0.74 | 0.738 | 0.603
Calu-6 | 1.05 | 1.03 | 1.02 | 1.11 | 1.03 | 0.919 | 0.819 | 0.834 | 0.473 | 0.368 | – | – | – | – | – | – | – | – | – | –
ChaGo-K-1 | 1.04 | 1.29 | 1.29 | – | 0.646 | 0.92 | 1.08 | 1.12 | 1.03 | 0.662 | 0.614 | 0.494 | 0.494 | 0.494 | 0.605 | 0.708 | 0.551 | 0.603 | 0.628 | 0.574
EBC-1 | 0.549 | 0.563 | 0.473 | 0.684 | 0.549 | 0.48 | 0.464 | 0.521 | 0.482 | 0.489 | – | – | – | – | – | – | – | – | – | –
EKVX | 1.04 | 0.997 | 1.08 | 0.967 | 1.11 | 0.99 | 0.995 | 1.04 | 0.513 | 0.763 | 0.267 | 0.235 | 0.238 | 0.235 | 0.266 | 0.649 | 0.68 | 0.728 | 0.786 | 0.738
EMC-BAC-2 | 1.12 | 1.12 | 1.03 | 1.15 | 0.961 | 1.07 | 1 | 1.08 | 1.05 | 0.351 | 0.642 | 0.467 | 0.541 | 0.576 | 0.594 | 0.435 | 0.379 | 0.482 | 0.438 | 0.367
EPLC-272H | 0.873 | 0.779 | 0.848 | 0.881 | 0.655 | 0.973 | 0.956 | 0.818 | 0.808 | 0.392 | 0.306 | 0.27 | 0.346 | 0.405 | 0.397 | 0.293 | 0.281 | 0.264 | 0.335 | 0.236
H3255 | 0.788 | 0.883 | 0.833 | 0.619 | 0.668 | 0.901 | 0.776 | 1.06 | – | 0.696 | 0.443 | 0.368 | 0.343 | 0.386 | 0.408 | 0.609 | 0.566 | 0.508 | 0.62 | 0.677
